Reference: patent publication US20220288057A1, “CONJOINT THERAPY FOR TREATING SEIZURE DISORDERS” (XENON PHARMACEUTICALS INC., priority 2021, published 2022)

Columns and labels:
[1] = tested on: AC-MES-induced tonic seizures in CF-1 mice; assay: Mouse AC-MES assay (60 Hz, 40 mA, 0.2 s); format: in vivo
Procedure: The efficacy of Compound A and its pharmacological interaction with Lacosamide was evaluated after oral dosing in the mouse maximal electroshock seizure (AC-MES) assay.
The objective of these studies was to characterize the dose-dependent anticonvulsant activity of Compound A and its pharmacological interaction with Lacosamide in the AC-MES assay in mice after a single oral administration of the compounds. The AC-MES assay is typically responsive to non-selective sodium channel blockers and potassium channel openers, and has been used as a translational animal model for partial onset seizures.
The anticonvulsant efficacy of Compound A and Lacosamide, and the effect of combining Compound A with Lacosamide were tested in the AC-MES assay in male CF-1 mice following a single PO dose. Plasma and brain samples were obtained to understand the relationship between drug concentration and efficacy.
AC-MES Assay: The MES test has been extensively used in the search for anticonvulsant substances (Piredda et al., Löscher et al., and White et al.). The MES test is considered a model for generalized tonic-clonic (GTC) seizures and provides an indication of a compound's ability to prevent seizure spread. In the AC-MES model, an electroshock of alternating current (60 Hz, 40 mA) was delivered for 0.2 seconds by corneal electrodes (HSE-HA Rodent Shocker, Harvard Apparatus, model no: 73-0105). CF-1 mice were dosed PO (according to Standard Operating Procedure (SOP) TECH-006) with vehicle or Compound A 0.5 hours before the electroshock assay Immediately prior to the electroshock stimulation, the animals' eyes were anesthetized with a topical application of 0.5% Alcaine solution (proparacaine hydrochloride, one drop per eye). Mice were then restrained, the corneal electrodes applied, and the shock administered. In naïve animals, the seizure is characterized by an initial generalized tonic seizure with hindlimb tonic extensor component. An animal is considered protected from MES-induced seizures upon abolition of the hindlimb tonic extensor component of the seizure and is then scored “0”. […] Mice were euthanized immediately after an initial seizure score assessment following the electroshock for plasma and brain collection.
Data Processing and Analysis: All statistics were calculated using GraphPad Prism version 8 software. Concentration response curves were generated using the Hill Langmuir equation:
Y=B+(T−B)×x^n/(IC50^n+x^n), Equation 1
where: • B=bottom, set as 0. • T=top, set as 1. • n=the Hill coefficient, constrained to less than zero. • IC50=concentration of a compound required for 50% inhibition in vitro.
All group data is expressed as mean. Between-group differences were analyzed using Kruskal-Wallis followed by Dunn's multiple comparison test.
Plasma and brain samples were obtained to understand the relationship between drug concentration and efficacy.
(§1) The Blinding and Randomization, Clinical Observations, AC-MES Assay, Sample Collection and Preparation, Plasma and Brain Samples Analysis, and Bioanalysis Procedures in Example 4 were identical to those used in Example 2.
Sample concentration determination and Data Processing and Analysis in Example 4 was identical to Example 2.

CF-1 mouse = assay: Clinical observations / behavioral signs in AC-MES studies; format: in vivo
Procedure: Any qualitative changes from normal behavior were recorded.
Five oral (PO) doses of Compound A were each tested in the AC-MES model. Thirty minutes after administration of Compound A at 1 mg/kg (n=8), 3 mg/kg (n=8), 5 mg/kg (n=16), 7.5 mg/kg (n=7), and 10 mg/kg (n=17) via oral gavage to male CF-1 mice (body weights 28.2 to 43.8 g), the mice underwent a 60 Hz corneal electrical stimulus (0.2 seconds duration, 40 mA). This stimulus elicited a tonic hindlimb extension in all vehicle-dosed animals. […] An observational neurological assessment (qualitative test) was also conducted at the time of testing as a tolerability screen. Terminal plasma and brain samples were collected from all animals to obtain the levels of Compound A concentration, and to understand the relationship between efficacy and drug concentration.
as §1

[2] = Study 2A, Lacosamide 6 mg/kg PO, 2 h
[3] = Study 2A, Lacosamide 8 mg/kg PO, 2 h
[4] = Study 2B, Lacosamide 10 mg/kg PO, 2 h
[5] = Study 2C, Lacosamide 10 mg/kg PO, 2 h, alone
[6] = Study 2D, Lacosamide 6 mg/kg PO, 2 h
[7] = Study 2D, Lacosamide 20 mg/kg PO, 2 h

NC(=O)O[C@@H](Cn1ncnn1)c1ccccc1Cl [Cenobamate, reference compound]
fraction of animals seizing ([1]; Cenobamate 7.5 mg/kg PO, 2 h, alone): 3/7 | fraction of animals seizing ([1]; Cenobamate 10 mg/kg PO, 2 h, alone): 1/8 | fraction of animals seizing ([1]; Cenobamate 30 mg/kg PO, 2 h, alone): 0/8 | fraction of animals seizing ([1]; Cenobamate lower doses of 3 and 5 mg/kg PO, 2 h, alone): 7/8 | Fraction Seizing ([1]; Study 4D, Cenobamate 3 mg/kg single oral dose, 2 h pre-treatment, vehicle 8/8): 8/8 | Fraction Seizing ([1]; Study 4D, Cenobamate 10 mg/kg single oral dose, 2 h pre-treatment, vehicle 8/8): 1/8 | Fraction Seizing ([1]; Study 4D, Cenobamate 30 mg/kg single oral dose, vehicle 8/8): 0/8 | Fraction Seizing ([1]; Study 4E, Cenobamate 3 mg/kg single oral dose, 2 h pre-treatment, vehicle 8/8): 6/7 | Fraction Seizing ([1]; Study 4E, Cenobamate 5 mg/kg single oral dose, 2 h pre-treatment, vehicle 8/8): 6/7 | Fraction Seizing ([1]; Study 4E, Cenobamate 7.5 mg/kg single oral dose, 2 h pre-treatment, vehicle 8/8): 3/8 | fraction of animals seizing ([1]; Study 4F, Cenobamate 5 mg/kg PO, 2 h, alone): 8/8 | Fraction Seizing ([1]; Study 4F, Cenobamate 5 mg/kg PO alone, 2 h pre-treatment, vehicle 8/8): 8/8 | Fraction with Behavioral Signs (CF-1 mouse; Study 4D, Cenobamate 3 mg/kg single oral dose): 0/8 | Fraction with Behavioral Signs (CF-1 mouse; Study 4D, Cenobamate 10 mg/kg single oral dose): 0/8 | Fraction with Behavioral Signs (CF-1 mouse; Study 4D, Cenobamate 30 mg/kg single oral dose): 0/8 | Fraction with Behavioral Signs (CF-1 mouse; Study 4E, Cenobamate 3 mg/kg single oral dose): 0/8 | Fraction with Behavioral Signs (CF-1 mouse; Study 4E, Cenobamate 5 mg/kg single oral dose): 0/8 | Fraction with Behavioral Signs (CF-1 mouse; Study 4E, Cenobamate 7.5 mg/kg single oral dose): 0/8 | Fraction with Behavioral Signs (CF-1 mouse; Study 4F, Cenobamate 5 mg/kg PO alone): 0/8

COC[C@@H](NC(C)=O)C(=O)NCc1ccccc1 [Lacosamide, reference compound]
Fraction Seizing [1, 2]: 8/8 | Fraction Seizing [1, 3]: 8/8 | Fraction Seizing [1, 4]: 8/8 | Fraction Seizing [1, 5]: 6/8 | Fraction Seizing [1, 6]: 8/8 | Fraction Seizing [1, 7]: 3/8 | Fraction with Behavioral Signs (CF-1 mouse; [2]): 0/8 | Fraction with Behavioral Signs (CF-1 mouse; [3]): 0/8 | Fraction with Behavioral Signs (CF-1 mouse; [4]): 0/8 | Fraction with Behavioral Signs (CF-1 mouse; [5]): 0/8 | Fraction with Behavioral Signs (CF-1 mouse; [6]): 0/8 | Fraction with Behavioral Signs (CF-1 mouse; [7]): 0/8
